Target: IRAK4 (Homo sapiens (Human), UniProt Q9NWZ3)
Assay: IRAK-4 AlphaScreen biochemical kinase assay
Details: 1 nM IRAK4, 1 mM ATP, 3.5 h at RT
Procedure: The biochemical assay is in a AlphaScreen format. The kinase reaction is based on the IRAK-4 phosphorylation of a biotin labeled peptide. The phosphopeptide is incubated with anti-phosphothreonine antibody as well as streptavidin- and protein A-coated beads. Binding of the protein-A coated beads to the antibody and the streptavidin beads to the peptide, leads to an energy transfer from one bead to the other, ultimately producing a luminescent/fluorescent signal.
The compounds described herein were tested for in the above biochemical assay.

IRAK4, sequence (Q9NWZ3 whole entry, species assumed): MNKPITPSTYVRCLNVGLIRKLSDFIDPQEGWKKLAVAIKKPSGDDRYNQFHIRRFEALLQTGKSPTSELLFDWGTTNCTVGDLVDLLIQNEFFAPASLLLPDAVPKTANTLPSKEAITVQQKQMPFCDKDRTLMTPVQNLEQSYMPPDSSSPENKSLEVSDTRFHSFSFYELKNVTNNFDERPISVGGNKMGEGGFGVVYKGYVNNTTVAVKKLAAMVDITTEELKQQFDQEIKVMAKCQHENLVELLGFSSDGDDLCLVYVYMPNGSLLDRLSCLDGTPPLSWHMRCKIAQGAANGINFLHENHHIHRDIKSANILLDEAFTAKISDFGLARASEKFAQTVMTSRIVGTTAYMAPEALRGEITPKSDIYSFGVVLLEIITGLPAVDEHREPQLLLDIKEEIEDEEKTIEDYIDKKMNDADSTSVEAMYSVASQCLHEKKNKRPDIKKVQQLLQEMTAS

Structure (SMILES)	IC50
CCCC(N)c1cccc(-c2ccc3cnc(-c4cccc(C)n4)n3c2)n1 (stereo not drawn) [Example 276, 1-(6-(3-(6-methylpyridin-2-yl)imidazo[1,5-a]pyridin-6-yl)pyridin-2-yl)butan-1-amine]	< 100 nM
O=C1CCCc2ccc(-c3ccc4cnn(-c5cccc(C(F)(F)F)n5)c4c3)nc21 [Example 212, 2-(1-(6-(trifluoromethyl)pyridin-2-yl)-1H-indazol-6-yl)-6,7-dihydroquinolin-8(5H)-one]	> 10000 nM
N#Cc1cc(-c2cncc(NC(=O)C(F)(F)F)c2)cc2c1cnn2-c1cccc(C(F)(F)F)n1 [Example 208, N-(5-(4-cyano-1-(6-(trifluoromethyl)pyridin-2-yl)-1H-indazol-6-yl)pyridin-3-yl)-2,2,2-trifluoroacetamide]	> 10000 nM
CCC(N)c1cccc(-c2ccc3cnc(-c4cccc(C)n4)n3c2)n1 (stereo not drawn) [Example 275, 1-(6-(3-(6-methylpyridin-2-yl)imidazo[1,5-a]pyridin-6-yl)pyridin-2-yl)propan-1-amine]	< 100 nM

More lines, now with the values ahead:

IC50	Structure (SMILES)
< 100 nM	CCC[C@H](N)c1cccc(-c2cc(N3CCCCC3)c3cnn(-c4cccc(CO)n4)c3c2)n1 [Example 324, (S)-(6-(6-(6-(1-aminobutyl)pyridin-2-yl)-4-(piperidin-1-yl)-1H-indazol-1-yl)pyridin-2-yl)methanol]
< 100 nM	CCC[C@H](N)c1cccc(-c2cc(C3=CCN(C)CC3)c3cnn(-c4cccc(CO)n4)c3c2)n1 [Example 423, (S)-(6-(6-(6-(1-aminobutyl)pyridin-2-yl)-4-(1-methyl-1,2,3,6-tetrahydropyridin-4-yl)-1H-indazol-1-yl)pyridin-2-yl)methanol]
